# System: CyPPO16 wild type (SEQ ID NO: 1) in PPO-deficient E. coli BT3(ΔPPO)
# Format: cell-based
# Conditions: LB agar, 37° C., light, 16 to 20 hours
# Method: (§1) The mutated CyPPO gene obtained from the Example 2 was transformed to BT3 (ΔPPO) strain which is deficient of PPO activity and cultured in LB media with PPO-inhibiting herbicide, thereby examining whether growth of transformed BT3 was not inhibited.
# (§2) BT3 competent cells were transformed with the pET303-CyPPO16 and pET303-CyPPO17 plasmids and those with a mutation(s) constructed in Example 2 respectively, and were cultured in LB agar media containing carbenicillin (Gold Biotechnology, Co., Ltd.).
# (§3) Single colony of E. coli transformed with each CyPPO gene was cultured in 3 ml of LB broth containing carbenicillin overnight, and then was subcultured until absorbance (0D600) reached 0.5 to 1. Then, it was diluted with LB broth to OD600=0.5. Again, the diluted solution was serially diluted 4 times by a factor of one tenth.
# (§4) The LB agar media (LB 25 g/l, Bacto agar 15 g/l) containing carbenicillin (100 μg/ml) and 0 to 4,000 μM of various herbicides dissolved in DMSO was prepared. Next, 10 μl of each diluted solution was dropped on the plate and cultured at 37° C. under light (Tables 7 and 9, FIGS. 2 to 6, and 18 to 22) or dark (Tables 8 and 10, FIGS. 7 to 17, and 23 to 33) for 16 to 20 hours. Then, extent of tolerance was evaluated.
# (§5) The extent of herbicide tolerance of the mutated genes was evaluated by comparing that of mutated genes with that of wild type. The relative tolerance was represented with “+” as a factor of 10 times. Evaluation result was listed in Tables 7 to10 and FIGS. 2 to 33:
# (§6) In Tables 7 to 10, tolerance level was presented as of tolerance of wild type and of variants equivalent to that of wild type, and was done as ‘+’ per each 10 fold resistance until ‘+++++’ as maximal resistance. (Tolerance level was evaluated by relative growth level of variants to that of wild type in the media containing highest concentration of herbicide; ‘+’=1-9 fold higher tolerance, ‘++’=10-99 fold higher tolerance, ‘+++’=100-999 fold higher tolerance, ‘++++’=1,000-9,999 fold higher tolerance, ‘+++++’=more than 10,000 fold higher tolerance)
row,SMILES,Herbicide tolerance (relative to wild type)
1,CC(C)=C1OC(=O)N(c2cc(OC3CCCC3)c(Cl)cc2F)C1=O [pentoxazone],−
2,O=C(O)c1cc(Oc2ccc(C(F)(F)F)cc2Cl)ccc1[N+](=O)[O-] [acifluorfen],−
3,C#CCN(C)c1c(C#N)cnn1-c1nn2c(c1Cl)CCCC2 [pyraclonil],−

# System: CyPPO17 wild type (SEQ ID NO: 3) in PPO-deficient E. coli BT3(ΔPPO)
# Format: cell-based
# Conditions: LB agar, 37° C., light, 16 to 20 hours
# Method: as §1, §2, §3, §4, §5, §6
row,SMILES,Herbicide tolerance (relative to wild type)
1,CC(C)=C1OC(=O)N(c2cc(OC3CCCC3)c(Cl)cc2F)C1=O [pentoxazone],−
2,O=C(O)c1cc(Oc2ccc(C(F)(F)F)cc2Cl)ccc1[N+](=O)[O-] [acifluorfen],−
3,C#CCN(C)c1c(C#N)cnn1-c1nn2c(c1Cl)CCCC2 [pyraclonil],−

# System: CyPPO16 (SEQ ID NO: 1) variant A162C in PPO-deficient E. coli BT3(ΔPPO)
# Format: cell-based
# Conditions: LB agar, 37° C., light, 16 to 20 hours
# Method: as §1, §2, §3, §4
# (§7) The extent of herbicide tolerance of the mutated genes was evaluated by comparing that of mutated genes with that of wild type. The relative tolerance was represented with “+” as a factor of 10 times.
# (§8) In Tables 7 to 10, tolerance level was presented as of tolerance of wild type and of variants equivalent to that of wild type, and was done as ‘+’ per each 10 fold resistance until ‘+++++’ as maximal resistance.
row,SMILES,Herbicide tolerance (relative to wild type)
1,CC(C)=C1OC(=O)N(c2cc(OC3CCCC3)c(Cl)cc2F)C1=O [pentoxazone],++ (10-99 fold higher tolerance)
2,O=C(O)c1cc(Oc2ccc(C(F)(F)F)cc2Cl)ccc1[N+](=O)[O-] [acifluorfen],++ (10-99 fold higher tolerance)
3,C#CCN(C)c1c(C#N)cnn1-c1nn2c(c1Cl)CCCC2 [pyraclonil],++ (10-99 fold higher tolerance)

# System: CyPPO16 (SEQ ID NO: 1) variant A162L in PPO-deficient E. coli BT3(ΔPPO)
# Format: cell-based
# Conditions: LB agar, 37° C., light, 16 to 20 hours
# Method: as §1, §2, §3, §4, §7, §8
row,SMILES,Herbicide tolerance (relative to wild type)
1,CC(C)=C1OC(=O)N(c2cc(OC3CCCC3)c(Cl)cc2F)C1=O [pentoxazone],++ (10-99 fold higher tolerance)
2,O=C(O)c1cc(Oc2ccc(C(F)(F)F)cc2Cl)ccc1[N+](=O)[O-] [acifluorfen],++ (10-99 fold higher tolerance)
3,C#CCN(C)c1c(C#N)cnn1-c1nn2c(c1Cl)CCCC2 [pyraclonil],++ (10-99 fold higher tolerance)

# System: CyPPO16 (SEQ ID NO: 1) variant F360C in PPO-deficient E. coli BT3(ΔPPO)
# Format: cell-based
# Conditions: LB agar, 37° C., light, 16 to 20 hours
# Method: as §1, §2, §3, §4, §7, §8
row,SMILES,Herbicide tolerance (relative to wild type)
1,CC(C)=C1OC(=O)N(c2cc(OC3CCCC3)c(Cl)cc2F)C1=O [pentoxazone],++ (10-99 fold higher tolerance)
2,O=C(O)c1cc(Oc2ccc(C(F)(F)F)cc2Cl)ccc1[N+](=O)[O-] [acifluorfen],++ (10-99 fold higher tolerance)
3,C#CCN(C)c1c(C#N)cnn1-c1nn2c(c1Cl)CCCC2 [pyraclonil],++ (10-99 fold higher tolerance)

# System: CyPPO16 (SEQ ID NO: 1) variant F360I in PPO-deficient E. coli BT3(ΔPPO)
# Format: cell-based
# Conditions: LB agar, 37° C., light, 16 to 20 hours
# Method: as §1, §2, §3, §4, §7, §8
row,SMILES,Herbicide tolerance (relative to wild type)
1,CC(C)=C1OC(=O)N(c2cc(OC3CCCC3)c(Cl)cc2F)C1=O [pentoxazone],+ (1-9 fold higher tolerance)
2,O=C(O)c1cc(Oc2ccc(C(F)(F)F)cc2Cl)ccc1[N+](=O)[O-] [acifluorfen],+ (1-9 fold higher tolerance)
3,C#CCN(C)c1c(C#N)cnn1-c1nn2c(c1Cl)CCCC2 [pyraclonil],+ (1-9 fold higher tolerance)

# System: CyPPO16 (SEQ ID NO: 1) variant F360L in PPO-deficient E. coli BT3(ΔPPO)
# Format: cell-based
# Conditions: LB agar, 37° C., light, 16 to 20 hours
# Method: as §1, §2, §3, §4, §7, §8
row,SMILES,Herbicide tolerance (relative to wild type)
1,CC(C)=C1OC(=O)N(c2cc(OC3CCCC3)c(Cl)cc2F)C1=O [pentoxazone],+ (1-9 fold higher tolerance)
2,O=C(O)c1cc(Oc2ccc(C(F)(F)F)cc2Cl)ccc1[N+](=O)[O-] [acifluorfen],+ (1-9 fold higher tolerance)
3,C#CCN(C)c1c(C#N)cnn1-c1nn2c(c1Cl)CCCC2 [pyraclonil],+ (1-9 fold higher tolerance)

# System: CyPPO16 (SEQ ID NO: 1) variant F360M in PPO-deficient E. coli BT3(ΔPPO)
# Format: cell-based
# Conditions: LB agar, 37° C., light, 16 to 20 hours
# Method: as §1, §2, §3, §4, §7, §8
row,SMILES,Herbicide tolerance (relative to wild type)
1,CC(C)=C1OC(=O)N(c2cc(OC3CCCC3)c(Cl)cc2F)C1=O [pentoxazone],+ (1-9 fold higher tolerance)
2,O=C(O)c1cc(Oc2ccc(C(F)(F)F)cc2Cl)ccc1[N+](=O)[O-] [acifluorfen],+ (1-9 fold higher tolerance)
3,C#CCN(C)c1c(C#N)cnn1-c1nn2c(c1Cl)CCCC2 [pyraclonil],+ (1-9 fold higher tolerance)

# System: CyPPO16 (SEQ ID NO: 1) variant F360V in PPO-deficient E. coli BT3(ΔPPO)
# Format: cell-based
# Conditions: LB agar, 37° C., light, 16 to 20 hours
# Method: as §1, §2, §3, §4, §7, §8
row,SMILES,Herbicide tolerance (relative to wild type)
1,CC(C)=C1OC(=O)N(c2cc(OC3CCCC3)c(Cl)cc2F)C1=O [pentoxazone],+ (1-9 fold higher tolerance)
2,O=C(O)c1cc(Oc2ccc(C(F)(F)F)cc2Cl)ccc1[N+](=O)[O-] [acifluorfen],+ (1-9 fold higher tolerance)
3,C#CCN(C)c1c(C#N)cnn1-c1nn2c(c1Cl)CCCC2 [pyraclonil],+ (1-9 fold higher tolerance)

# System: CyPPO16 (SEQ ID NO: 1) variant V305M in PPO-deficient E. coli BT3(ΔPPO)
# Format: cell-based
# Conditions: LB agar, 37° C., light, 16 to 20 hours
# Method: as §1, §2, §3, §4, §7, §8
row,SMILES,Herbicide tolerance (relative to wild type)
1,CC(C)=C1OC(=O)N(c2cc(OC3CCCC3)c(Cl)cc2F)C1=O [pentoxazone],+ (1-9 fold higher tolerance)
2,O=C(O)c1cc(Oc2ccc(C(F)(F)F)cc2Cl)ccc1[N+](=O)[O-] [acifluorfen],++ (10-99 fold higher tolerance)
3,C#CCN(C)c1c(C#N)cnn1-c1nn2c(c1Cl)CCCC2 [pyraclonil],+ (1-9 fold higher tolerance)

# System: CyPPO17 (SEQ ID NO: 3) variant A166C in PPO-deficient E. coli BT3(ΔPPO)
# Format: cell-based
# Conditions: LB agar, 37° C., light, 16 to 20 hours
# Method: as §1, §2, §3, §4, §7, §8
row,SMILES,Herbicide tolerance (relative to wild type)
1,CC(C)=C1OC(=O)N(c2cc(OC3CCCC3)c(Cl)cc2F)C1=O [pentoxazone],+ (1-9 fold higher tolerance)
2,O=C(O)c1cc(Oc2ccc(C(F)(F)F)cc2Cl)ccc1[N+](=O)[O-] [acifluorfen],+++ (100-999 fold higher tolerance)

# System: CyPPO17 (SEQ ID NO: 3) variant A166L in PPO-deficient E. coli BT3(ΔPPO)
# Format: cell-based
# Conditions: LB agar, 37° C., light, 16 to 20 hours
# Method: as §1, §2, §3, §4, §7, §8
row,SMILES,Herbicide tolerance (relative to wild type)
1,CC(C)=C1OC(=O)N(c2cc(OC3CCCC3)c(Cl)cc2F)C1=O [pentoxazone],++ (10-99 fold higher tolerance)
2,O=C(O)c1cc(Oc2ccc(C(F)(F)F)cc2Cl)ccc1[N+](=O)[O-] [acifluorfen],+++ (100-999 fold higher tolerance)
3,C#CCN(C)c1c(C#N)cnn1-c1nn2c(c1Cl)CCCC2 [pyraclonil],+ (1-9 fold higher tolerance)

# System: CyPPO17 (SEQ ID NO: 3) variant F359C in PPO-deficient E. coli BT3(ΔPPO)
# Format: cell-based
# Conditions: LB agar, 37° C., light, 16 to 20 hours
# Method: as §1, §2, §3, §4, §7, §8
row,SMILES,Herbicide tolerance (relative to wild type)
1,CC(C)=C1OC(=O)N(c2cc(OC3CCCC3)c(Cl)cc2F)C1=O [pentoxazone],+ (1-9 fold higher tolerance)
2,O=C(O)c1cc(Oc2ccc(C(F)(F)F)cc2Cl)ccc1[N+](=O)[O-] [acifluorfen],+ (1-9 fold higher tolerance)
3,C#CCN(C)c1c(C#N)cnn1-c1nn2c(c1Cl)CCCC2 [pyraclonil],+ (1-9 fold higher tolerance)

# System: CyPPO17 (SEQ ID NO: 3) variant F359I in PPO-deficient E. coli BT3(ΔPPO)
# Format: cell-based
# Conditions: LB agar, 37° C., light, 16 to 20 hours
# Method: as §1, §2, §3, §4, §7, §8
row,SMILES,Herbicide tolerance (relative to wild type)
1,CC(C)=C1OC(=O)N(c2cc(OC3CCCC3)c(Cl)cc2F)C1=O [pentoxazone],++ (10-99 fold higher tolerance)
2,O=C(O)c1cc(Oc2ccc(C(F)(F)F)cc2Cl)ccc1[N+](=O)[O-] [acifluorfen],+ (1-9 fold higher tolerance)
3,C#CCN(C)c1c(C#N)cnn1-c1nn2c(c1Cl)CCCC2 [pyraclonil],+ (1-9 fold higher tolerance)

# System: CyPPO17 (SEQ ID NO: 3) variant F359L in PPO-deficient E. coli BT3(ΔPPO)
# Format: cell-based
# Conditions: LB agar, 37° C., light, 16 to 20 hours
# Method: as §1, §2, §3, §4, §7, §8
row,SMILES,Herbicide tolerance (relative to wild type)
1,CC(C)=C1OC(=O)N(c2cc(OC3CCCC3)c(Cl)cc2F)C1=O [pentoxazone],+ (1-9 fold higher tolerance)
2,O=C(O)c1cc(Oc2ccc(C(F)(F)F)cc2Cl)ccc1[N+](=O)[O-] [acifluorfen],+ (1-9 fold higher tolerance)
3,C#CCN(C)c1c(C#N)cnn1-c1nn2c(c1Cl)CCCC2 [pyraclonil],+ (1-9 fold higher tolerance)

# System: CyPPO17 (SEQ ID NO: 3) variant F359M in PPO-deficient E. coli BT3(ΔPPO)
# Format: cell-based
# Conditions: LB agar, 37° C., light, 16 to 20 hours
# Method: as §1, §2, §3, §4, §7, §8
row,SMILES,Herbicide tolerance (relative to wild type)
1,CC(C)=C1OC(=O)N(c2cc(OC3CCCC3)c(Cl)cc2F)C1=O [pentoxazone],++ (10-99 fold higher tolerance)
2,O=C(O)c1cc(Oc2ccc(C(F)(F)F)cc2Cl)ccc1[N+](=O)[O-] [acifluorfen],+++ (100-999 fold higher tolerance)
3,C#CCN(C)c1c(C#N)cnn1-c1nn2c(c1Cl)CCCC2 [pyraclonil],+ (1-9 fold higher tolerance)

# System: CyPPO17 (SEQ ID NO: 3) variant V304M in PPO-deficient E. coli BT3(ΔPPO)
# Format: cell-based
# Conditions: LB agar, 37° C., light, 16 to 20 hours
# Method: as §1, §2, §3, §4, §7, §8
row,SMILES,Herbicide tolerance (relative to wild type)
1,CC(C)=C1OC(=O)N(c2cc(OC3CCCC3)c(Cl)cc2F)C1=O [pentoxazone],+ (1-9 fold higher tolerance)
2,O=C(O)c1cc(Oc2ccc(C(F)(F)F)cc2Cl)ccc1[N+](=O)[O-] [acifluorfen],+++ (100-999 fold higher tolerance)
